Experimental data: publication PMC12892976, “Alkylation-based optimization of antifungal FPPS inhibitors yields a potent, broad-spectrum lipophilic zoledronate derivative” (mBio, 2025)
In brackets after ≈: the same amount, converted by molar mass.

Columns and labels:
Nannizzia nana [1] = assay: MIC broth microdilution (CLSI); format: cell-based; conditions: Nannizzia nana R-133
Description: (§1) Antifungal susceptibility was determined by broth microdilution according to the CLSI guidelines described in M27-Ed4 ([16]).

Aspergillus terreus [2] = assay: MIC broth microdilution (CLSI); format: cell-based; conditions: Aspergillus terreus 75-16-089-2500
Description: as §1

Microsporum canis [3] = assay: MIC broth microdilution (CLSI); conditions: Microsporum canis R-232
Description: as §1

Aspergillus udagawae [4] = assay: MIC broth microdilution (CLSI); format: cell-based; conditions: Aspergillus udagawae 8G81
Description: as §1

Candida dubliniensis = assay: checkerboard drug interaction (FICI, MICc); format: cell-based;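 also: simplified diagonal checkerboard screen pairing antifungals with FPPS inhibitors, FICI calculated under the Loewe additivity model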
Description: (§2) Drug interactions between antifungals and FPPS inhibitors were investigated using a simplified checkerboard diagonal screening method ([45]). […] FICIs were determined according to the Loewe additivity model ([17]).

Aspergillus lentulus = assay: checkerboard drug interaction (FICI, MICc); format: cell-based;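 also: simplified diagonal checkerboard screen pairing antifungals with FPPS inhibitors, with the interaction index calculated under the Loewe additivity model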
Description: as §2

Aspergillus felis = assay: MIC broth microdilution (CLSI); format: cell-based; conditions: Aspergillus felis IHE87256683D6
Description: as §1

Aspergillus niger [5] = assay: MIC broth microdilution (CLSI); format: cell-based; conditions: Aspergillus niger 111
Description: as §1

Trichophyton tonsurans = assay: checkerboard drug interaction (FICI, MICc); format: cell-based;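 also: simplified diagonal checkerboard screen combining antifungals with FPPS inhibitors, with FICI calculated under the Loewe additivity model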
Description: as §2

[6] = tested on: Cryptococcus deneoformans; assay: MIC broth microdilution (CLSI); format: cell-based; conditions: Cryptococcus deneoformans JEC21
Description: as §1

Aspergillus terreus [7] = assay: checkerboard drug interaction (FICI, MICc); format: cell-based;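 also: simplified diagonal checkerboard screen pairing antifungals with FPPS inhibitors, FICI derived by the Loewe additivity model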
Description: as §2

Aspergillus niger [8] = assay: checkerboard drug interaction (FICI, MICc); format: cell-based;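 also: simplified diagonal checkerboard screen pairing antifungals with FPPS inhibitors, FICI calculated under the Loewe additivity model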
Description: as §2

Cryptococcus gattii = assay: checkerboard drug interaction (FICI, MICc); format: cell-based;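 also: simplified diagonal checkerboard screen pairing antifungals with FPPS inhibitors, FICI computed under the Loewe additivity model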
Description: as §2

Paraphyton cookei [9] = assay: MIC broth microdilution (CLSI); format: cell-based; conditions: Paraphyton cookei R-639
Description: as §1

Epidermophyton floccosum = assay: MIC broth microdilution (CLSI); format: cell-based; conditions: Epidermophyon floccosum R-113
Description: as §1

Nannizzia gypsea [10] = assay: checkerboard drug interaction (FICI, MICc);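 also: simplified diagonal checkerboard screen pairing antifungals with FPPS inhibitors, FICI derived using the Loewe additivity model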
Description: as §2

Candida parapsilosis = assay: checkerboard drug interaction (FICI, MICc); format: cell-based;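 also: simplified diagonal checkerboard screen pairing antifungals with FPPS inhibitors, with FICI computed under the Loewe additivity model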
Description: as §2

[11] = tested on: Aspergillus frankstonensis; assay: MIC broth microdilution (CLSI); format: cell-based; conditions: Aspergillus frankstonensis DTO 341-F3
Description: as §1

Pichia kudriavzevii [12] = assay: MIC broth microdilution (CLSI); format: cell-based; conditions: Pichia kudriavzavii ATCC 6258
Description: Antifungal susceptibility was determined by broth microdilution according to the CLSI guidelines described in M27-Ed4 ([16]). […] MFC was determined by back-plating drug-treated cultures from MIC broths onto SDA plates. The MFC was defined as the lowest concentration from which no colonies could be cultured.

[13] = tested on: Cryptococcus bacillisporus; assay: MIC broth microdilution (CLSI); format: cell-based; conditions: Cryptococcus bacillisporus NIH179
Description: as §1

Nannizzia gypsea [14] = assay: MIC broth microdilution (CLSI); format: cell-based; conditions: Nannizzia gypsea R-131
Description: as §1

Aspergillus parafelis [15] = assay: checkerboard drug interaction (FICI, MICc);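 also: simplified diagonal checkerboard screen pairing antifungals with FPPS inhibitors, FICI calculated under the Loewe additivity model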
Description: as §2

Microsporum canis [16] = assay: checkerboard drug interaction (FICI, MICc); format: cell-based;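 also: simplified diagonal checkerboard screen pairing antifungals with FPPS inhibitors, FICI calculated under the Loewe additivity model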
Description: as §2

Trichophyton soudanense = assay: MIC broth microdilution (CLSI); conditions: Trichophyton soudanense R-167
Description: as §1

Mucor circinelloides = assay: MIC broth microdilution (CLSI); format: cell-based; conditions: Mucor circinelloides 80-14-240-5007
Description: as §1

[17] = tested on: Cryptococcus bacillisporus; assay: checkerboard drug interaction (FICI, MICc); format: cell-based;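 also: interaction of antifungals with FPPS inhibitors assessed by a simplified diagonal checkerboard screen, with FICI computed under the Loewe additivity model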
Description: as §2

Cryptococcus tetragattii = assay: MIC broth microdilution (CLSI); format: cell-based; conditions: Cryptococcus tetragattii WM779
Description: as §1

Fusarium oxysporum = assay: checkerboard drug interaction (FICI, MICc); format: cell-based
Description: as §2

Aspergillus udagawae [18] = assay: checkerboard drug interaction (FICI, MICc); format: cell-based;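 also: simplified diagonal checkerboard screen pairing antifungals with FPPS inhibitors, FICI calculated using the Loewe additivity model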
Description: as §2

Scedosporium apiospermum = assay: checkerboard drug interaction (FICI, MICc); format: cell-based;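 also: simplified diagonal checkerboard screen of antifungal plus FPPS inhibitor pairs, with FICI computed under the Loewe additivity model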
Description: as §2

Aspergillus parafelis [19] = assay: MIC broth microdilution (CLSI); format: cell-based; conditions: Aspergillus parafelis DTO 341-F2
Description: as §1

Fusarium solani = assay: checkerboard drug interaction (FICI, MICc); format: cell-based;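 also: simplified diagonal checkerboard screen pairing antifungals with FPPS inhibitors, FICI derived under the Loewe additivity model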
Description: as §2

Nannizzia nana [20] = assay: checkerboard drug interaction (FICI, MICc); format: cell-based
Description: as §2

Pichia kudriavzevii [21] = assay: checkerboard drug interaction (FICI, MICc); format: cell-based;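 also: antifungal plus FPPS inhibitor interactions tested in a simplified diagonal checkerboard screen, with FICI calculated under the Loewe additivity model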
Description: as §2

Candida auris = assay: MIC broth microdilution (CLSI); format: cell-based; conditions: Candida auris CDC-0384
Description: as §1

Paraphyton cookei [22] = assay: checkerboard drug interaction (FICI, MICc);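 also: simplified diagonal checkerboard screen pairing an antifungal with an FPPS inhibitor, FICI computed under the Loewe additivity model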
Description: as §2

SMILES: CC[C@H](C)C[C@H](C)CCCCCCCCC(=O)N[C@H]1C[C@@H](O)[C@@H](NCCN)NC(=O)[C@@H]2[C@@H](O)CCN2C(=O)[C@H]([C@H](O)CCN)NC(=O)[C@H]([C@H](O)[C@@H](O)c2ccc(O)cc2)NC(=O)[C@@H]2C[C@@H](O)CN2C(=O)[C@H]([C@@H](C)O)NC1=O [CAS, caspofungin]
- MIC / MEC (Nannizzia nana [1]): 0.13 µg/mL (≈ 0.119 µM)
- MIC / MEC (Aspergillus terreus [2]): 2 µg/mL (≈ 1.83 µM)
- MIC / MEC (Microsporum canis [3]): 0.25 µg/mL (≈ 0.229 µM)
- MIC / MEC (Aspergillus udagawae [4]): 2 µg/mL (≈ 1.83 µM)
- antifungal MICc (Candida dubliniensis; in combination with 10-ZOL): 0.063
- antifungal MICc (Candida dubliniensis; in combination with ZOL): 0.01
- antifungal MICc (Aspergillus lentulus; in combination with 10-ZOL): 4
- antifungal MICc (Aspergillus lentulus; in combination with ZOL): 2
- MIC / MEC (Aspergillus felis): 0.25 µg/mL (≈ 0.229 µM)
- MIC / MEC (Aspergillus niger [5]): 4 µg/mL (≈ 3.66 µM)
- antifungal MICc (Trichophyton tonsurans; in combination with 10-ZOL): 2
- antifungal MICc (Trichophyton tonsurans; in combination with ZOL): 0.25
- MIC / MEC [6]: 16 µg/mL (≈ 14.6 µM)
- antifungal MICc (Aspergillus terreus [7]; in combination with 10-ZOL): 2
- antifungal MICc (Aspergillus terreus [7]; in combination with ZOL): 2
- antifungal MICc (Aspergillus niger [8]; in combination with 10-ZOL): 2
- antifungal MICc (Aspergillus niger [8]; in combination with ZOL): 4
- antifungal MICc (Cryptococcus gattii; in combination with 10-ZOL): 2
- antifungal MICc (Cryptococcus gattii; in combination with ZOL): 16
- MIC / MEC (Paraphyton cookei [9]): 0.25 µg/mL (≈ 0.229 µM)
- MIC / MEC (Epidermophyton floccosum): 0.13 µg/mL (≈ 0.119 µM)
- antifungal MICc (Nannizzia gypsea [10]; in combination with 10-ZOL): 0.25
- antifungal MICc (Nannizzia gypsea [10]; in combination with ZOL): 0.5
- antifungal MICc (Candida parapsilosis; in combination with 10-ZOL): 0.25
- antifungal MICc (Candida parapsilosis; in combination with ZOL): 0.5
- MIC / MEC [11]: 0.13 µg/mL (≈ 0.119 µM)
- MIC / MEC (Pichia kudriavzevii [12]): 1 µg/mL (≈ 0.915 µM)
- MIC / MEC [13]: 8 µg/mL (≈ 7.32 µM)
- MIC / MEC (Nannizzia gypsea [14]): 1 µg/mL (≈ 0.915 µM)
- antifungal MICc (Aspergillus parafelis [15]; in combination with 10-ZOL): 0.5
- antifungal MICc (Aspergillus parafelis [15]; in combination with ZOL): 0.065
- antifungal MICc (Microsporum canis [16]; in combination with 10-ZOL): 0.25
- antifungal MICc (Microsporum canis [16]; in combination with ZOL): 0.125
- MIC / MEC (Trichophyton soudanense): 0.5 µg/mL (≈ 0.457 µM)
- MIC / MEC (Mucor circinelloides): >16 µg/mL
- antifungal MICc ([17]; in combination with 10-ZOL): 2
- antifungal MICc ([17]; in combination with ZOL): 8
- MIC / MEC (Cryptococcus tetragattii): 8 µg/mL (≈ 7.32 µM)
- antifungal MICc (Fusarium oxysporum; in combination with 10-ZOL): 128
- antifungal MICc (Fusarium oxysporum; in combination with ZOL): 64
- antifungal MICc (Aspergillus udagawae [18]; in combination with 10-ZOL): 1
- antifungal MICc (Aspergillus udagawae [18]; in combination with ZOL): 2
- antifungal MICc (Scedosporium apiospermum; in combination with 10-ZOL): 16
- antifungal MICc (Scedosporium apiospermum; in combination with ZOL): 32
- MIC / MEC (Aspergillus parafelis [19]): 0.13 µg/mL (≈ 0.119 µM)
- antifungal MICc (Fusarium solani; in combination with 10-ZOL): 16
- antifungal MICc (Fusarium solani; in combination with ZOL): 64
- antifungal MICc (Nannizzia nana [20]; in combination with 10-ZOL): 0.25
- antifungal MICc (Nannizzia nana [20]; in combination with ZOL): 0.033
- antifungal MICc (Pichia kudriavzevii [21]; in combination with 10-ZOL): 0.5
- antifungal MICc (Pichia kudriavzevii [21]; in combination with ZOL): 0.5
- MIC / MEC (Candida auris): 4 µg/mL (≈ 3.66 µM)
- antifungal MICc (Paraphyton cookei [22]; in combination with 10-ZOL): 0.25
- antifungal MICc (Paraphyton cookei [22]; in combination with ZOL): 0.125

SMILES: CCC(C)n1ncn(-c2ccc(N3CCN(c4ccc(OCC5COC(Cn6cncn6)(c6ccc(Cl)cc6Cl)O5)cc4)CC3)cc2)c1=O (stereo not drawn) [ITR, itraconazole]
- MIC / MEC (Nannizzia nana [1]): 0.25 µg/mL (≈ 0.354 µM)
- MIC / MEC (Aspergillus terreus [2]): 0.5 µg/mL (≈ 0.709 µM)
- MIC / MEC (Microsporum canis [3]): 0.5 µg/mL (≈ 0.709 µM)
- MIC / MEC (Aspergillus udagawae [4]): 1 µg/mL (≈ 1.42 µM)
- antifungal MICc (Candida dubliniensis; in combination with 10-ZOL): 0.033
- antifungal MICc (Candida dubliniensis; in combination with ZOL): 0.03125
- antifungal MICc (Aspergillus lentulus; in combination with 10-ZOL): 0.25
- antifungal MICc (Aspergillus lentulus; in combination with ZOL): 0.5
- MIC / MEC (Aspergillus felis): 2 µg/mL (≈ 2.83 µM)
- MIC / MEC (Aspergillus niger [5]): 2 µg/mL (≈ 2.83 µM)
- antifungal MICc (Trichophyton tonsurans; in combination with 10-ZOL): 0.25
- antifungal MICc (Trichophyton tonsurans; in combination with ZOL): 0.25
- MIC / MEC [6]: 0.06 µg/mL (≈ 0.085 µM)
- antifungal MICc (Aspergillus terreus [7]; in combination with 10-ZOL): 0.25
- antifungal MICc (Aspergillus terreus [7]; in combination with ZOL): 0.13
- antifungal MICc (Aspergillus niger [8]; in combination with 10-ZOL): 0.25
- antifungal MICc (Aspergillus niger [8]; in combination with ZOL): 1
- antifungal MICc (Cryptococcus gattii; in combination with 10-ZOL): 0.125
- antifungal MICc (Cryptococcus gattii; in combination with ZOL): 0.125
- MIC / MEC (Paraphyton cookei [9]): 2 µg/mL (≈ 2.83 µM)
- MIC / MEC (Epidermophyton floccosum): 1 µg/mL (≈ 1.42 µM)
- antifungal MICc (Nannizzia gypsea [10]; in combination with 10-ZOL): 2
- antifungal MICc (Nannizzia gypsea [10]; in combination with ZOL): 0.5
- antifungal MICc (Candida parapsilosis; in combination with 10-ZOL): 0.125
- antifungal MICc (Candida parapsilosis; in combination with ZOL): 0.062
- MIC / MEC [11]: 2 µg/mL (≈ 2.83 µM)
- MIC / MEC (Pichia kudriavzevii [12]): 1 µg/mL (≈ 1.42 µM)
- MIC / MEC [13]: 0.06 µg/mL (≈ 0.085 µM)
- MIC / MEC (Nannizzia gypsea [14]): 2 µg/mL (≈ 2.83 µM)
- antifungal MICc (Aspergillus parafelis [15]; in combination with 10-ZOL): 2
- antifungal MICc (Aspergillus parafelis [15]; in combination with ZOL): 8
- antifungal MICc (Microsporum canis [16]; in combination with 10-ZOL): 0.063
- antifungal MICc (Microsporum canis [16]; in combination with ZOL): 0.25
- MIC / MEC (Trichophyton soudanense): 0.5 µg/mL (≈ 0.709 µM)
- MIC / MEC (Mucor circinelloides): 0.5 µg/mL (≈ 0.709 µM)
- antifungal MICc ([17]; in combination with 10-ZOL): 0.033
- antifungal MICc ([17]; in combination with ZOL): 0.0625
- MIC / MEC (Cryptococcus tetragattii): 0.5 µg/mL (≈ 0.709 µM)
- antifungal MICc (Fusarium oxysporum; in combination with 10-ZOL): 1
- antifungal MICc (Fusarium oxysporum; in combination with ZOL): 1
- antifungal MICc (Aspergillus udagawae [18]; in combination with 10-ZOL): 0.25
- antifungal MICc (Aspergillus udagawae [18]; in combination with ZOL): 0.5
- antifungal MICc (Scedosporium apiospermum; in combination with 10-ZOL): 4
- antifungal MICc (Scedosporium apiospermum; in combination with ZOL): 4
- MIC / MEC (Aspergillus parafelis [19]): 8 µg/mL (≈ 11.3 µM)
- antifungal MICc (Fusarium solani; in combination with 10-ZOL): 1
- antifungal MICc (Fusarium solani; in combination with ZOL): 0.5
- antifungal MICc (Nannizzia nana [20]; in combination with 10-ZOL): 0.25
- antifungal MICc (Nannizzia nana [20]; in combination with ZOL): 0.13
- antifungal MICc (Pichia kudriavzevii [21]; in combination with 10-ZOL): 1
- antifungal MICc (Pichia kudriavzevii [21]; in combination with ZOL): 0.25
- MIC / MEC (Candida auris): 2 µg/mL (≈ 2.83 µM)
- antifungal MICc (Paraphyton cookei [22]; in combination with 10-ZOL): 0.063
- antifungal MICc (Paraphyton cookei [22]; in combination with ZOL): 1
